Measurements published in patent US5017723A, “Substituted ethylamines, their preparation process, their use as medicine and their synthesising agents” (Jouveinal S.A., priority 1990, dated 1991).
Read-outs that look alike come from different tables or passages of the source.

What was measured:
opiated mu receptor [1] = molecular target: opiated mu receptor (Cavia porcellus, UniProt A0ACM8Q262); format: binding, guinea pig; settings: inhibition of 50% of radioligand bonds; read-out: CI50 affinity mu rec.
opiated mu receptor (Cavia porcellus, UniProt A0ACM8Q262), sequence (A0ACM8Q262 1-400): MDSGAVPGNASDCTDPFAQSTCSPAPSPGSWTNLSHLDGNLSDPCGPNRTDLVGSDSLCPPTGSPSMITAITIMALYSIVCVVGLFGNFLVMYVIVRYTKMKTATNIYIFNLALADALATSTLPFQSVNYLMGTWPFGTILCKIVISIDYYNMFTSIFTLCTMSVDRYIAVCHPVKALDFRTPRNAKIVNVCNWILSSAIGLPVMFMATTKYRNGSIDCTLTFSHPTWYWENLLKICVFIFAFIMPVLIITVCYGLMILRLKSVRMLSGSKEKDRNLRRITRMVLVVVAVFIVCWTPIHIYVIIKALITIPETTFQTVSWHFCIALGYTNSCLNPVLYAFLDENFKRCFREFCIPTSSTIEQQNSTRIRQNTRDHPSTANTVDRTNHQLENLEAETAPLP
Method: (§1) The analysis is carried out in accordance with the technique described by F. Roman et al. in J. Pharm. Pharmcol. 1987, 39, p. 404-407 which consists of analysing the displacement of specific radioactive ligands of the opiated mu, delta and kappa sub receptors by the action of the test products on the membranous receptors of a guinea pig.

bladder of the rat = experiment: Transvesical cystomanometry on wide awake rat (urological activity); format: in vivo, female rat; settings: for activity on the urinary tract compared to the reference compounds (in words): compared to Dicyclomine and Baclofen; for change in vivo at 1 mg/kg: Rattus norvegicus, iv, 1,0 mg/kg i.v.
Method: Studies by a similar method of operation, the compounds of the invention (I.A) which show a mu and kappa affinity also have an activity on certain functional parameters of the bladder of the rat which justifies their interest in the treatment of dysfunctions in the urinary tract.
The study carried out consists of transvesical cystomanometry on a wide awake rat. The following was measured during the storage and emission phases of urine under continuous intervesical perfusion of sterile physiological serum:
the "threshold pressure", which is the intervesical pressure immediately preceding the contraction phase of the detrusor
the volume of each urinary emission.
The technique used in the female rat consisted of preparing the animals 48 hours before the actual experiment by effecting the implantation of two catheters in the apex of the bladder and one catheter in the left-hand jugular vein under anaesthetic, with the external end of these catheters being protected and held by a sticking plaster corset.
The animals were placed in suitable cages at the time of the test, which were equipped so as to collect and measure the urine. For each animal one vesical catheter was connected to a pressure sensor, the other to a perfusor which supplied 0.2 ml/min. of sterile physiological serum continuously.
The intravesical pressure was measured continuously during the perfusion and it was possible to observe:
a filling phase of the bladder during which the pressure increased progressively,
a sudden rising phase of this pressure during the contraction of the detrusor: the "threshold" pressure which is the pressure observed just before the pressure of the contraction phase. This threshold pressure was raised in the same way as the urinary volume at each urination.
The study consisted of observing the changes in these parameters by the action of the products (IA) which were administered in solution by intravenous route by means of the catheter placed in the left jugular vein.
Dicyclomine and Baclofen which have been considered for the treatment of hyperactive bladders (Drugs of Today, Vol. 24, no. 5, 1988, p. 337-348) were also used in this test in the form of comparison products.

opiated delta receptor = molecular target: T1, opiated delta receptor (Cavia porcellus, UniProt A0A286XTF2); experiment: Displacement of specific radioactive ligands, opiated delta receptor; format: binding, guinea pig; settings: inhibition of 50% of radioligand bonds; read-out: CI50 affinity delta rec.
T1 construct: membranous receptors of a guinea pig; from tissue
T1 sequence (A0A286XTF2 1-366): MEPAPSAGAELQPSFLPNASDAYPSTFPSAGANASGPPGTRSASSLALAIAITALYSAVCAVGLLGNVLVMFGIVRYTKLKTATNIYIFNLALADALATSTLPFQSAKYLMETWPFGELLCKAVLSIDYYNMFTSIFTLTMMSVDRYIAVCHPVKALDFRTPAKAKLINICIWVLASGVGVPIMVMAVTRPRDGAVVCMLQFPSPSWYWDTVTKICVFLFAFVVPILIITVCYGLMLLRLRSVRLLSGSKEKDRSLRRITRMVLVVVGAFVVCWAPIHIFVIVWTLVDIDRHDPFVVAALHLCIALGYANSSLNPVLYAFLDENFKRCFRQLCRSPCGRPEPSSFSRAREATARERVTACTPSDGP
Method: as §1

[2] = system: convulsion induced by picrotoxine in mice; experiment: Protection against picrotoxine-induced convulsion (suppression of the tonic extension phase); format: in vivo, male Swiss mice; settings: Mus musculus; for responders at 50 mg/kg: 0.5 h, read-out: i.p.: % prot. (percentage of protected animals), 50 mg/kg i.p., picrotoxine 24 mg/kg i.p. 30 min later; for responders at 50 mg/kg / responders at 100 mg/kg: * p<0.05, ** p<0.01, *** p<0.001; for responders at 100 mg/kg: 1 h, read-out: p.o.: % prot. (percentage of protected animals), 100 mg/kg p.o., picrotoxine 24 mg/kg i.p. 60 min later
Description: The psychotropic properties of the compounds have been determined by the protection of the induced convulsion by picrotoxine for mice, which is achieved by the method derived from that of Krall et al., "Epilepsia", 1978, 19, p. 409-428.
The administration of picrotoxine caused a convulsive crisis in the animal characterised by a myoclonic extension syndrome followed by the extension of the limbs causing the animal to die. Certain substances, particularly those active on the complex GABA/benzodiazepines/Cl-ionophore makes it possible to protect the animals from this convulsive crisis.
In practice the study is carried out on batches of 10 male "Swiss" mice weighing approximately 20 g, which are administered with the product to be studied in aqueous solution either by intraperitoneal route (i.p.) at the rate of 50 mg/kg and in a volume of 0.2 ml of solution per animal, or by oral route (p.o) in a volume of 2.0 ml of solution per animal.
An injection of a solution of picrotoxine at the rate of 24 mg/kg in a volume of 0.2 ml per animal is then administered by interperitoneal route, either 30 minutes after administering the product by interperitoneal route or 60 minutes after administering the product by oral route. The dose of the product injected causing a clonic crisis, which results in untreated animals dying. The suppression of the extension tonic phase in the animals treated under the conditions of the test is observed. The results are expressed:
either in percentages of protected animals of this phase to the reaction of 50 mg/kg of the compound of the study administered by i.p. route or 100 mg/kg by p.o route,
or in DE50 for each of these routes, which is the efficient dosage of the test compound expressed in mg/kg protecting 50% of the animals of this extension phase. The significant value of the results being generally indicated in the following manner:
* Significant result at p<0.05
** Significant result at p<0.01
*** Significant highly significant at p<0.001.

opiated kappa receptor = molecular target: T2, opiated kappa receptor (Cavia porcellus, UniProt P41144); experiment: Displacement of specific radioactive ligands, opiated kappa receptor; format: binding, guinea pig; settings: inhibition of 50% of radioligand bonds; read-out: CI50 affinity kappa rec.
T2 construct: membranous receptors of a guinea pig; from tissue
T2 sequence (P41144 whole entry): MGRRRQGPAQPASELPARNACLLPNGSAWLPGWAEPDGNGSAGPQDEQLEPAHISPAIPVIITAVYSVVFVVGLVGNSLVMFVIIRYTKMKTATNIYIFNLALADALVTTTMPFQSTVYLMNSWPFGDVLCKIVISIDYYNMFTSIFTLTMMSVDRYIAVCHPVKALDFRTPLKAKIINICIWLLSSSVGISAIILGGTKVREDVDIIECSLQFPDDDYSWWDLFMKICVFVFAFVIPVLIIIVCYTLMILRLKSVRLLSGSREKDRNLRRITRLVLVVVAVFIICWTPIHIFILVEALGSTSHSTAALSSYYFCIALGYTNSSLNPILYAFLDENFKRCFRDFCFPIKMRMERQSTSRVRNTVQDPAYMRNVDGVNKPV
Method: as §1

opiated mu receptor [3] = format: binding, guinea pig; settings: opiated receptors, compared with morphine
Method: as §1

[4] = read-out: % variation pressure threshold

In the case of `CCC(CC=Cc1ccccc1)(c1ccc(Cl)cc1)N(C)C` (centres unmarked) [Example 31, a-cinnamyl-N,N-dimethyl-a-ethyl-p.chlorobenzylamine], the IC50 (opiated mu receptor [1]) is reported as 80 nM, the “activity on the urinary tract compared to the reference compounds (in words)” value (bladder of the rat) is reported as “important activity” and the IC50 (opiated delta receptor) is reported as 1340 nM. For the same molecule, the responders at 50 mg/kg ([2]; ip) was 100%, the responders at 100 mg/kg ([2]; po) was 50% and the IC50 (opiated kappa receptor) was 210 nM.

`CCC(CC=Cc1ccccc1)(c1ccc(OC)cc1)N(C)C` (centres unmarked) [Example 35, a-cinnamyl-N,N-dimethyl-a-ethyl-p.methoxybenzylamine] gave an IC50 (opiated mu receptor [1]) of 60 nM, a change in vivo at 1 mg/kg (bladder of the rat; [4]) of 200% and a change in vivo at 1 mg/kg (bladder of the rat; read-out: % variation volume) of 39%. For the same molecule, the “activity on the urinary tract compared to the reference compounds (in words)” value (bladder of the rat) was “important activity”, the IC50 (opiated delta receptor) was 1280 nM and the responders at 50 mg/kg ([2]; ip) was 90%. The ED50 ([2]; po, read-out: p.o.: DE50) was 40.3 mg/kg and the IC50 (opiated kappa receptor) was 290 nM.

With `CCC(CC=Cc1ccc(Cl)c(Cl)c1)(c1ccccc1)N(C)C` (centres unmarked) [Example 36, a-(3',4'-dichloro)cinnamyl-N,N-dimethyl-a-ethyl-benzylamine] the IC50 (opiated mu receptor [1]) was 90 nM, the change in vivo at 1 mg/kg (bladder of the rat; [4]) was 125% and the change in vivo at 1 mg/kg (bladder of the rat; read-out: % variation volume) was 36%. For the same molecule, the “activity on the urinary tract compared to the reference compounds (in words)” value (bladder of the rat) was “important activity”, the IC50 (opiated delta receptor) was 680 nM and the responders at 100 mg/kg ([2]; po) was 100%. It also gave an IC50 (opiated kappa receptor) of 220 nM.

For `CCC(CC=Cc1ccc(Cl)c(Cl)c1)(c1ccc(Cl)cc1)N(C)C` (centres unmarked) [Example 43, a-(3',4' dichloro) cinnamyl-N,N-dimethyl-a-ethyl-p.chlorobenzylamine], the IC50 (opiated mu receptor [1]) was 16 nM, the “affinity with the receptors compared with morphine (in words)” value (opiated mu receptor [3]) was “same order of intensity as the reference products” and the change in vivo at 1 mg/kg (bladder of the rat; [4]) was 109%. For the same molecule, the change in vivo at 1 mg/kg (bladder of the rat; read-out: % variation volume) was 91%, the “activity on the urinary tract compared to the reference compounds (in words)” value (bladder of the rat) was “important activity” and the IC50 (opiated delta receptor) was 434 nM. For the same molecule, the IC50 (opiated kappa receptor) was 197 nM.

For `CCC(CC=Cc1ccc(Cl)c(Cl)c1)(c1ccc(C)cc1)N(C)C` (centres unmarked) [Example 44, a-(3',4'-dichloro) cinnamyl-N,N-dimethyl-a-ethyl-p.methylbenzylamine], the IC50 (opiated mu receptor [1]) was 4 nM, the “affinity with the receptors compared with morphine (in words)” value (opiated mu receptor [3]) was “same order of intensity as the reference products” and the “activity on the urinary tract compared to the reference compounds (in words)” value (bladder of the rat) was “important activity”. It also gave an IC50 (opiated delta receptor) of 223 nM, an ED50 ([2]; ip, read-out: i.p.: DE50) of 21.4 mg/kg and an ED50 ([2]; po, read-out: p.o.: DE50) of 23.9 mg/kg. For the same molecule, the IC50 (opiated kappa receptor) was 110 nM.

For `CCC(CC=Cc1ccc(Cl)c(Cl)c1)(c1ccc(OC)cc1)N(C)C` (centres unmarked) [Example 46, a-(3',4'-dichloro)cinnamyl-N,N-dimethyl-a-ethyl-p.metoxybenzylamine], the IC50 (opiated mu receptor [1]) was 12 nM, the “affinity with the receptors compared with morphine (in words)” value (opiated mu receptor [3]) was “same order of intensity as the reference products” and the change in vivo at 1 mg/kg (bladder of the rat; [4]) was 111%. The change in vivo at 1 mg/kg (bladder of the rat; read-out: % variation volume) was 44%, the “activity on the urinary tract compared to the reference compounds (in words)” value (bladder of the rat) was “important activity” and the IC50 (opiated delta receptor) was 260 nM. For the same molecule, the ED50 ([2]; ip, read-out: i.p.: DE50) was 29.8 mg/kg, the ED50 ([2]; po, read-out: p.o.: DE50) was 35.4 mg/kg and the IC50 (opiated kappa receptor) was 235 nM.
